How the values were obtained:
FPR = biological target: T1, FPR (Homo sapiens, UniProt P21462, E346A/V101L); assay: Aequorin-based assay on CHO-K1 cells expressing FPR; type: cell-based
T1 construct: expressed in transfected cells; host or cells: CHO-K1 (with or without Galpha16 and apoaequorin)
T1 sequence (P21462 1-350 V101L/E346A): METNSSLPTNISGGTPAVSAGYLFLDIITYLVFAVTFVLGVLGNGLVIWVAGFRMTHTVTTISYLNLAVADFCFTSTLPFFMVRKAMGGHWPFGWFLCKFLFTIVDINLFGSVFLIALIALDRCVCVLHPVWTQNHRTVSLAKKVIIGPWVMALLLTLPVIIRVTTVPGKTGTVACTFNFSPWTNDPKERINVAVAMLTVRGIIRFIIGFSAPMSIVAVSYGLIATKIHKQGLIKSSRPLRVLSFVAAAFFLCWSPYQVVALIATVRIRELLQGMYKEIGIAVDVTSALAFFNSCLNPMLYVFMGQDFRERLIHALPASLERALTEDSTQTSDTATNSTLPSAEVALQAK
Description: The human coding sequences (accession numbers AC005946, M84562 and M60626, respectively) were amplified by PCR from human genomic DNA, cloned into the pcDNA3 (Invitrogen) and pEFIN3 (Euroscreen) vectors and sequenced. The pEFIN3 constructs were transfected, using Fugene 6, into CHO-K1 cells, expressing or not Gα16 and apoaequorin. G418-resistant clones were characterized for receptor expression by Northern blotting. […] Results were expressed as relative light units (RLU) or as the percentage of the response to 20 μM ATP.

ERK1/2 MAP-kinases = assay: ERK1/2 activation by Western blotting in FPRL2-expressing CHO-K1 cells; type: cell-based, human
Method: (§1) The cAMP concentrations were determined using a homogeneous time-resolved fluorescence (HTRF) kit (Cis Bio International). Briefly, cells were detached, resuspended in Krebs Ringer Hepes buffer containing 1 mM 3-Isobutyl-1-methylxanthine, and submitted to 10 μM forskolin, alone or together with increasing concentrations of agonists for 30 min at room temperature. The reaction was stopped by the successive addition of cAMP-XL665 and anti-cAMP cryptate diluted in lysis buffer. The plates were incubated for 60 min at room temperature and read on a Rubystar fluorimeter (BMG). […] A calibration curve was obtained by plotting delta F % versus cAMP concentrations. ERK1/2 activation was assayed by Western blotting, using an anti-phospho-p42/44 monoclonal antibody (E10, Cell Signaling Technology) as described (46). The aequorin-based assay was performed with or without overnight pretreatment with 100 ng/ml Pertussis toxin. […] For FPRL2 polymorphism analysis, HEK cells were transiently transfected with empty and wild-type or Asp338H is FPRL2-containing pcdna vector using calcium phosphate method. Cells were recovered 48 hours later and used for FACS or cAMP experiments.

FPRL2 [1] = biological target: T2, FPRL2 (Homo sapiens, UniProt P25089); assay: cAMP accumulation assay (HTRF, forskolin) on FPRL2-expressing CHO-K1 cells; type: cell-based; design: expressed in transfected cells; host or cells: CHO-K1; details: CHO-K1 cells expressing FPRL2 but not G alpha 16; without forskolin
T2 sequence (P25089 1-353): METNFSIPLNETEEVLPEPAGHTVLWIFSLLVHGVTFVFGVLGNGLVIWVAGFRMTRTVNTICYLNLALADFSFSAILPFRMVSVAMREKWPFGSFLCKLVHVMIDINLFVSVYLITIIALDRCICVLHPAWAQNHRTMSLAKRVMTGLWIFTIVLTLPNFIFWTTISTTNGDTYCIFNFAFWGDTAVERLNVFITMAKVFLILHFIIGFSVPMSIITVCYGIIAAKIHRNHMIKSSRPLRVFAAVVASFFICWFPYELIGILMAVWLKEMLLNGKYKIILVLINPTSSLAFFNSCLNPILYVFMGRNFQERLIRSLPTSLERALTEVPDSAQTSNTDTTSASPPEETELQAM
Method: as §1, with “Briefly, cells were detached, resuspended in Krebs Ringer Hepes buffer containing 1 mM 3-Isobutyl-1-methylxanthine, and submitted to 10 μM forskolin, alone or together with increasing concentrations of agonists for 30 min at room temperature.” left out, “ERK1/2 activation was assayed by Western blotting, using an anti-phospho-p42/44 monoclonal antibody (E10, Cell Signaling Technology) as described (46).” left out

FPRL2 [2] = biological target: T2, FPRL2; assay: Aequorine assay on human FPRL2 expressing cells (Example 9); type: cell-based; design: expressed in transfected cells; host or cells: CHO-K1 (with or without Galpha16 and apoaequorin); details: peptides 2.5 μM to 0.4 nM, Mab 500 ug/ml to 5 ug/ml; FIG. 15
Method: Functional responses were analyzed by recording the luminescence of aequorine in human FPRL2 and FPRL1 expressing cells following the addition of agonists or purified monoclonal antibodies.
In brief, cells were collected from plates with PBS containing 5 mM EDTA, pelleted, resuspend at 5×10^6 cells/ml in DMEM/F-12 medium containing 0.1% bovine serum albumin, incubated with 5 μM coelenterazine H (molecular probes, Inc. Eugene, Oreg.) for 4 h at room temperature and diluted in DMEM/F-12 medium at a concentration of 5×10^5 cells/ml. Cells where then mixed in an 96 wells plate with the ligands or purified monoclonal antibodies. The light emission was recorded over 60 sec using a microlumat Luminometer (EG&G Berthold, microplate luminometer LB 96V).
Each data point is in duplicate. […] Human FPRL1 expressing cells were used as negative control to Mab. Functionality of these cells has been control with Humanin.

## CC[C@H](C)[C@H](NC(=O)[C@H](CCSC)NC(=O)CNC(=O)[C@H](CC(C)C)NC(=O)[C@H](CCSC)NC(C)=O)C(=O)N[C@@H](CCCCN)C(=O)N[C@@H](CC(N)=O)C(=O)N[C@@H](CO)C(=O)N[C@@H](CC(C)C)C(=O)N[C@@H](Cc1ccccc1)C(=O)NCC(=O)N[C@@H](CO)C(=O)N[C@H](C(=O)N[C@@H](CCC(=O)O)C(=O)N[C@H](C(=O)N[C@@H](Cc1c[nH]c2ccccc12)C(=O)N1CCC[C@H]1C(=O)N[C@@H](Cc1c[nH]c2ccccc12)C(=O)N[C@@H](CCC(N)=O)C(=O)N[C@H](C(=O)N[C@@H](CC(C)C)C(=O)O)C(C)C)[C@@H](C)O)C(C)C [F2L]
FPR; FIG. 6
  activation of FPR: not able to activate
FPR; FPR, −Log of EC50 in Mol/L, mean ± s.e.m., read-out: pEC50 (sequorin assay) (converted)
  EC50: > 1000 nM
FPR; up to 5 μM
  activity in the aequorin assay on FPR: no activity was detected
ERK1/2 MAP-kinases; 100 nM F2L, FIG. 11J
  time of maximal ERK1/2 phosphorylation: 15 min
ERK1/2 MAP-kinases; stimulation for 10 min, FIG. 11I
  concentrations inducing phosphorylation of the ERK1/2 MAP-kinases: picomolar concentrations
FPRL2 [1]
  stimulation of cAMP production by itself: unable to stimulate cAMP production
FPRL2 [2]
  activation of human FPRL2 expressing cells: activates
